# Patent publication US20090197811A1, “ORALLY ADMINISTERED PEPTIDES TO IMPROVE OR PREVENT HEPATIC FIBROSIS” (University of Southern California, priority 2007, published 2009)
# “And” between values parts separate entries of the source, which are not always exact repeats. Identical values can stand only once. “Also recorded” adds a separate entry of the source. Non-standard residues stand in square brackets, D forms with d.
# Assays:
# [1] = system: C57Bl/6J mice; experiment: Western diet model: liver histology, assessment of steatosis and inflammation; format: in vivo, mouse; conditions: for Fatty Change Degree of fat / Fatty Change Type (predominant type) / Inflammatory Clusters: individual mice
# Protocol: (§1) Studies were performed in male C5713L/6J mice (Jackson Laboratories, Bar Harbor Me.). Six groups were studied (n=3-5, see FIG. 1) with 4 mice per group at the outset, except for group 2, which was started with n=5; 1 mouse died in group 1. Groups 1, 2, and 3 received the Western diet for 9.5 months; during the last 2.5 months of the 9.5 months, group 2 received SR141716 10 mg/kg/day i.g., and group 3 received D-4F, 125 μg/mouse/day, in the drinking water. Groups 4, 5, and 6 received the Western diet for 7 months followed by standard chow for 2.5 months; during the 2.5 months on standard chow, group 5 received SR141716 and group 6 received D-4F as described for groups 2 and 3, respectively. Additional control groups were studied: 6-month old C57Bl/6J mice as age-matched controls (n=5) and C57Bl/6J mice that received the Western diet for 6 months (n=6).
# The slides were coded, without the pathologist knowing the specific treatment group that the slides represented. The histology was graded according to a number of histologic features. The degree of fat was graded as to the approximate percentage of hepatocytes containing fat: 0, absent; +/−, less than 5%; 1+, 5-25%; 2+. 26-50%; 3+, 51-75%; 4+, >75%. The fat was also assessed as to whether it was totally macrovesicular, predominantly macrovesicular, totally microvesicular, predominantly microvesicular, or mixed macro- and microvesicular. In addition, the zone was assessed as to whether the fat was perivenular, periportal, diffuse, or focal. Inflammation was graded as absent, scanty (1 to 3 foci/slide), present (scattered, with 4 to 10 foci/slide), present + (scattered, >10 foci/slide but not numerous), and present ++ (numerous). The type of inflammation was graded as totally mononuclear, predominantly mononuclear, totally neutrophilic, predominantly neutrophilic, and mixed mononuclear-neutrophilic. The hydropic change of hepatocytes was graded as absent, mild, and moderate/severe, with the location noted as perivenular, focal or diffuse.
# [2] = system: C57Bl/6J mice; experiment: Western diet model: α-smooth muscle actin staining of liver sections; format: in vivo, mouse; conditions: mice on the Western diet treated with D-4F (FIG. 4E)
# Protocol: as §1
# Sections of formalin-fixed, paraffin-embedded liver, 7 μm thick, were used for α-smooth muscle actin immunofluorescence staining. Slides were deparaffinized in xylene and serially rehydrated in graded ethanol (100-70%). Slides were treated with 0.1 M tris-HCl (pH 7.6)/0.05 Tween-20 for 5 min, incubated with 1 μg/ml proteinase K (Sigma, St Louis Mo.)) for 15 min at room temperature, and then rinsed in water for 10 min. […]
# [3] = system: murine hepatic stellate cells (HSC); experiment: Culture-induced activation of primary hepatic stellate cells (ASMA and oil red O staining); format: cell-based, mouse
# Protocol: Murine hepatic stellate cells (HSC) were isolated by collagenase/pronase digestion and Stractan density gradient centrifugation^16. α-Smooth muscle actin (ASMA) staining: HSC were cultured on glass coverslips and fixed with 10% formaldehyde (EM Science, Gibbstown, N.J.) for 20 minutes at room temperature. Cells were incubated with a mouse monoclonal anti-ASMA (1:250 or 1:50, as indicated), followed by a rabbit anti-mouse IgG TRITC conjugate (1:50, Santa Cruz Scientific, Santa Cruz, Calif.). Slides were examined using a Nikon PCM-2000 confocal microscope with a Nikon Eclipse TE300 microscope with a plan Apo 60×/1.4 aperture oil immersion objective, 543-nm laser, and Simple PCI software from the C-Imaging series from Nikon/Compix Inc (Cranberry Township Pa.). Values were obtained by counting the number of ASMA positive cells in 15 randomly selected fields in triplicate. […]
# To examine the mechanism of action of D-4F, murine hepatic stellate cells (HSC) were cultured on plastic for 7 days in the absence or presence of 10 μg/ml D-4F. Without D-4F, 87±2% of cells expressed α-smooth muscle actin (ASMA) after 7 days as assessed by confocal microscopy. In contrast, in the presence of D-4F 0% of HSC expressed ASMA after 7 days (see FIG. 7).
# [4] = group 3 vs group 1, Western diet 9.5 months, D-4F last 2.5 months
# [5] = 7 months Western diet followed by 2.5 months Western diet + drug
# [6] = 7 months Western diet followed by 2.5 months chow + drug
substance,measurement,setting,value
Ac-D-W-F-K-A-F-Y-D-K-V-A-E-K-F-K-E-A-F-NH2 (Ac-[dD][dW][dF][dK][dA][dF][dY][dD][dK][dV][dA][dE][dK][dF][dK][dE][dA][dF]-NH2; not fully specified; printed as Ac-D-W-F-K-A-F-Y-D-K-V-A-E-K-F-K-E-A-F-NH2) [D-4F],"inflammation, histologically",[1]; [4],some evidence of a reduction
same,"steatosis, histologically",[1]; [4],no effect
same,"inflammation, histologically",[1]; group 6 (switch to chow plus D-4F) vs group 4 (switch to chow),perhaps a small decrease
same,Fatty Change Degree of fat,[1]; [5],4
same,Fatty Change Type (predominant type),[1]; [5],Macrovesicular
same,Inflammatory Clusters,[1]; [5],3 (3×) and 2
same,Fatty Change Degree of fat,[1]; [6],2 (2×) and 0 and 3
same,Fatty Change Type (predominant type),[1]; [6],Mixed
same,Inflammatory Clusters,[1]; [6],1 and 2 (3×)
same,steatohepatitis (summary),[1]; summary statement,did not alter steatohepatitis
same,activated stellate cells in liver sections (α-smooth muscle actin staining),[2],decrease in activated stellate cells
same,"cytoplasmic fat (lipid) droplets, oil red O staining",[3]; HSC cultured 7 days in the presence of D-4F vs without,maintain significantly more lipid droplets; also recorded: maintained cytoplasmic fat droplets
same,hepatic stellate cell activation in vitro,[3]; summary statement,prevented hepatic stellate cell activation
